Measurements published in patent US7803810B2, “Inhibitors” (Probiodrug AG, priority 2007, dated 2010).

Target: glutaminyl cyclase (QC) (Homo sapiens, UniProt Q16769)
Assay: QC inhibitor assay (fluorometric / spectrophotometric QC activity assays with inhibitor added)
Format: biochemical
Conditions: QC inhibition, 30° C.; for Ki: fit to competitive inhibition
Procedure: All measurements were performed with a BioAssay Reader HTS-7000Plus for microplates (Perkin Elmer) at 30° C. QC activity was evaluated fluorometrically using […]. The samples consisted of 0.2 mM fluorogenic substrate, 0.25 U pyroglutamyl aminopeptidase (Unizyme, Horsholm, Denmark) in 0.2 M Tris/HCl, pH 8.0 containing 20 mM EDTA and an appropriately diluted aliquot of QC in a final volume of 250 μl. Excitation/emission wavelengths were 320/410 nm. The assay reactions were initiated by addition of glutaminyl cyclase. QC activity was determined from a standard curve of β-naphthylamine under assay conditions. One unit is defined as the amount of QC catalyzing the formation of 1 μmol pGlu-βNA from H-Gln-βNA per minute under the described conditions.
In a second fluorometric assay, QC was activity determined using H-Gln-AMC as substrate. Reactions were carried out at 30° C. utilizing the NOVOStar reader for microplates (BMG labtechnologies). The samples consisted of varying concentrations of the fluorogenic substrate, 0.1 U pyroglutamyl aminopeptidase (Qiagen) in 0.05 M Tris/HCl, pH 8.0 containing 5 mM EDTA and an appropriately diluted aliquot of QC in a final volume of 250 μl. Excitation/emission wavelengths were 380/460 nm. The assay reactions were initiated by addition of glutaminyl cyclase. QC activity was determined from a standard curve of 7-amino-4-methylcoumarin under assay conditions. The kinetic data were evaluated using GraFit software.
This novel assay was used to determine the kinetic parameters for most of the QC substrates. […] Samples consisted of the respective QC substrate, 0.3 mM NADH, 14 mM α-Ketoglutaric acid and 30 U/ml glutamate dehydrogenase in a final volume of 250 μl. Reactions were started by addition of QC and persued by monitoring of the decrease in absorbance at 340 nm for 8-15 min.
The initial velocities were evaluated and the enzymatic activity was determined from a standard curve of ammonia under assay conditions. All samples were measured at 30° C., using either the […]luor Plus or the Sunrise (both from TECAN) reader for microplates. Kinetic data was evaluated using GraFit software.
For inhibitor testing, the sample composition was the same as described above, except of the putative inhibitory compound added. For a rapid test of QC-inhibition, samples contained 4 mM of the respective inhibitor and a substrate concentration at 1 KM. For detailed investigations of the inhibition and determination of Ki-values, influence of the inhibitor on the auxiliary enzymes was investigated first. […] The inhibitory constant was evaluated by fitting the set of progress curves to the general equation for competitive inhibition using GraFit software.

glutaminyl cyclase (QC), sequence (Q16769 29-361): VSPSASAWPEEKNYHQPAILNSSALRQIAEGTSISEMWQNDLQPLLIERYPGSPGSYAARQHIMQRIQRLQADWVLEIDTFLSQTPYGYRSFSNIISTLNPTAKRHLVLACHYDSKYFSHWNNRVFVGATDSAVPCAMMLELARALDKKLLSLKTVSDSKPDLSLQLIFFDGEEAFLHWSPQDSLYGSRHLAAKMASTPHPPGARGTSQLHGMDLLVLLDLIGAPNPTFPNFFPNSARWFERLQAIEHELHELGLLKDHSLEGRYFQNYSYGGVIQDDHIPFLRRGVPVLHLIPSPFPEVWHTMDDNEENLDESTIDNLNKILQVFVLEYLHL

Row | Compound | IC50 [µM] | Ki [µM]
1 | Fc1cccc(-c2cccn3cncc23)c1 [Example 6, 8-(3-fluorophenyl)H-imidazo[1,5-a]pyridine] | 9.71 | 2.02
2 | Clc1cccc(-c2cccn3cncc23)c1 [Example 9, 8-(3-chlorophenyl)H-imidazo[1,5-a]pyridine] | 17.2 | 2.25
3 | FC(F)(F)Oc1ccccc1-c1cccn2cncc12 [Example 21, 8-(2-(trifluoromethoxy)phenyl)H-imidazo[1,5-a]pyridine] | 36.5 | 14.5
4 | c1ccc(-c2ccccc2-c2cccn3cncc23)cc1 [Example 18, 8-(biphen-2-yl)H-imidazo[1,5-a]pyridine] | 36.5 | 11
5 | c1ccc(COc2ccccc2-c2cccn3cncc23)cc1 [Example 15, 8-(2-(benzyloxy)phenyl)H-imidazo[1,5-a]pyridine] | 23.6 | 5.38
6 | c1cc(-c2ccc3c(c2)OCCO3)c2cncn2c1 [Example 25, 8-(2,3-dihydrobenzo[b][1,4]dioxin-7-yl)H-imidazo[1,5-a]pyridine] | 9.17 | 1.19
7 | COc1ccccc1-c1cccn2cncc12 [Example 12, 8-(2-methoxyphenyl)H-imidazo[1,5-a]pyridine] | 13.6 | 3.98
8 | c1ccc(-c2ccc(-c3cccn4cncc34)cc2)cc1 [Example 20, 8-(biphen-4-yl)H-imidazo[1,5-a]pyridine] | 20.6 | 2.13
9 | c1ccc(COc2ccc(-c3cccn4cncc34)cc2)cc1 [Example 17, 8-(4-(benzyloxy)phenyl)H-imidazo[1,5-a]pyridine] | 4.36 | 0.75
10 | c1ccc(Cc2cccn3cncc23)cc1 [Example 2, 8-benzylH-imidazo[1,5-a]pyridine] | 18.9 | 5.5
11 | c1ccc(-c2cccn3cncc23)cc1 [Example 4, 8-phenylH-imidazo[1,5-a]pyridine] | 8.22 | 1.3
12 | CC(C)Cc1cccn2cncc12 [Example 3, 8-isobutylH-imidazo[1,5-a]pyridine] | 20 | 3.7
13 | COc1cccc(-c2cccn3cncc23)c1 [Example 13, 8-(3-methoxyphenyl)H-imidazo[1,5-a]pyridine] | 6.19 | 1.1
14 | COc1ccc(-c2cccn3cncc23)cc1OC [Example 26, 8-(3,4-dimethoxyphenyl)H-imidazo[1,5-a]pyridine] | 15.4 | 9.38
15 | Fc1ccccc1-c1cccn2cncc12 [Example 5, 8-(2-fluorophenyl)H-imidazo[1,5-a]pyridine] | 20.6 | 3.14
16 | COc1ccc(-c2cccn3cncc23)cc1C [Example 24, 8-(4-methoxy-3-methylphenyl)H-imidazo[1,5-a]pyridine] | 26.4 | 2.66
17 | CCCCc1cccn2cncc12 [Example 1, 8-butylH-imidazo[1,5-a]pyridine] | 13.2 | 3.7
18 | c1ccc(-c2cccc(-c3cccn4cncc34)c2)cc1 [Example 19, 8-(biphen-3-yl)H-imidazo[1,5-a]pyridine] | 10.9 | 2.51
19 | c1ccc(COc2cccc(-c3cccn4cncc34)c2)cc1 [Example 16, 8-(3-(benzyloxy)phenyl)H-imidazo[1,5-a]pyridine] | 7.81 | 1.48
20 | Clc1ccccc1-c1cccn2cncc12 [Example 8, 8-(2-chlorophenyl)H-imidazo[1,5-a]pyridine] | 47.7 | 15.2
21 | COc1c(C)cc(-c2cccn3cncc23)cc1C [Example 27, 8-(4-methoxy-3,5-dimethylphenyl)H-imidazo[1,5-a]pyridine] | 27.4 | 4.92
22 | Clc1ccc(-c2cccn3cncc23)cc1 [Example 10, 8-(4-chlorophenyl)H-imidazo[1,5-a]pyridine] | 5.51 | 1.11
23 | Fc1ccc(-c2cccn3cncc23)cc1 [Example 7, 8-(4-fluorophenyl)H-imidazo[1,5-a]pyridine] | 10.6 | 1.87
24 | CCOc1ccc(-c2cccn3cncc23)cc1 [Example 22, 8-(4-ethoxyphenyl)H-imidazo[1,5-a]pyridine] | 14.3 | 1.89
25 | c1cc(-c2ccc3c(c2)OCO3)c2cncn2c1 [Example 23, 8-(benzo[d][1,3]dioxol-6-yl)H-imidazo[1,5-a]pyridine] | 29.2 | 3.46
